Consider 16 molecules from paper PMC4671662, “Identification of New Molecular Entities (NMEs) as Potential Leads against Tuberculosis from Open Source Compound Repository” (PLoS ONE, 2015).

One test deals with M. tuberculosis (H37Rv). Put plainly: M. tuberculosis (H37Rv) inhibition assay, Alamar Blue MIC. The class given is cell-based. The following applies: Mycobacterium tuberculosis, 168 h, six days + 24 h. On the technique in general: Alamar Blue is a resazurin reagent that responds to reducing activity.
Test [1] has as its system HepG2 (human hepatoma cells). Put plainly: Sulforhodamine B (SRB) cytotoxicity assay. The class given is cell-based. The note with it: 48 h. Background: In SRB staining, fixed cells bind dye roughly in proportion to their protein.
For another test, the system named is Mycobacterium. Put plainly: Minimum Bactericidal Concentration (MBC) test, CFU approach. The class given is cell-based. The note with it: for MBC compared with MIC: against the test organisms of the study; for Bacteriocidal/Bacteriostatic: from comparison of MIC and MBC.
A further test concerns NCI-H460. The arrangement: method as in PMID 18507473. The following applies: cited from earlier work.
Test [2] concerns A549 (human lung epithelial cells). Nature of the test: Sulforhodamine B (SRB) cytotoxicity assay. The class given is cell-based. The following applies: 48 h.
Test [3] deals with Mycobacterium bovis (BCG). Nature of the test: microbe, parasite or virus in culture. The class given is cell-based. The note with it: Mycobacterium tuberculosis variant bovis BCG, 96 h, read-out: BCG MIC.
In test [4] the test system is Mycobacterium smegmatis (mc^2155). Nature of the test: Antimycobacterial assay, turbidometric MIC (OD 600 nm). The class given is cell-based. The note with it: Mycolicibacterium smegmatis, read-out: M. smeg MIC.
In the next test the test system is MCF-7. Also on record: method as in PMID 18507473. The note with it: cited from earlier work.
A further test has as its system SF-264. The arrangement: method as in PMID 18507473. The note with it: cited from earlier work.
Test [5] relates to Campylobacter fetus subsp. jejuni. The note with it: cited from earlier work.
The next test relates to M. smegmatis (MC^2 155). Nature of the test: M. smegmatis primary screening, z-score. Format: cell-based, Mycobacterium smegmatis. The note with it: positive controls in primary screening.
The mark [6] stands for this setting: MC^2155, lowest concentration with 90% growth inhibition, 32 hours.

Values after ≈ are worked out from the molar mass of the structure shown. Read-outs that look alike come from different tables or passages of the source.

Turning to `O=C(CC1(O)c2ccccc2-n2c1nc1ccccc1c2=O)c1ccccc1` (stereo not shown) [Compound H26], the MIC in the test on M. tuberculosis (H37Rv) amounted to 0.4 µM; in test [3] it was 12 µM (≈ 4.44 µg/mL); in [4] (setting [6]), 53 µM (≈ 19.5 µg/mL). For the same molecule, the IC50 was 417 µM in test [1]; more than 50 µM with NCI-H460; 368 µM in test [2]; more than 50 µM with MCF-7; more than 50 µM in the test on SF-264. Besides, in the test on Mycobacterium, the “MBC compared with MIC” value is reported as “MBC values equivalent to their MIC values”. For the same molecule, the Bacteriocidal/Bacteriostatic entry in the test with Mycobacterium is given as “bactericidal activity”.

Regarding `COc1cccc2c1C(=O)c1c(O)c3c(c(O)c1C2=O)C[C@@](O)(C(=O)CO)C[C@@H]3O[C@H]1C[C@H](N)[C@H](O)[C@H](C)O1` [Doxorubicin, reference compound], the IC50 stood at 4.6 µM in [1] and 5.2 µM in [2].

As to `O=C(Cn1c(=O)n(Cc2ccc(F)cc2)c(=O)c2ccccc21)Nc1cc(F)ccc1F` [Compound H137], the MIC in the test with M. tuberculosis (H37Rv) came out at 12.5 µM; in test [3] it was 22.8 µM (≈ 10 µg/mL); in [4] (setting [6]), 39.2 µM (≈ 17.2 µg/mL). Moreover, the IC50 in test [1] came out at 390 µM; in test [2] it was 385 µM. Further, in the test on Mycobacterium, the Bacteriocidal/Bacteriostatic entry is on record as “Bacteriostatic”.

With `O=C(CSc1nnc(COc2ccc(F)cc2)o1)OC1CCCCC1` [Compound H43], the MIC came out at 6.28 µM in the test on M. tuberculosis (H37Rv), 13.5 µM (≈ 4.96 µg/mL) in test [3] and 52 µM (≈ 19 µg/mL) in test [4] (setting [6]). Further, the IC50 amounted to 373 µM in test [1] and 335 µM in [2]. Besides, in the test on Mycobacterium, the Bacteriocidal/Bacteriostatic result is listed as “Bacteriostatic”.

As to co-trimoxazole, in [5], the MBC was 125 µg/mL and the MIC was 31.2 µg/mL.

On to `Nc1ccc(C(=O)CSc2nnc3c(n2)CCCC3)cc1` [Compound H134], for which the MIC in the test with M. tuberculosis (H37Rv) is 12.5 µM; in [3], 10.9 µM (≈ 3.27 µg/mL); in test [4] (setting [6]) it was 22.7 µM (≈ 6.82 µg/mL). The results for the half-inhibitory concentration (IC50) in test [1] and in test [2] were 368 µM and 424 µM, respectively. Further, the Bacteriocidal/Bacteriostatic result with Mycobacterium is listed as “Bacteriostatic”.

`NNC(=O)c1ccncc1` [Isoniazid, reference compound] displayed a mean z-score in the test on M. smegmatis (MC^2 155) of 4.9. In test [4] (MC^2155, 32 h), the MIC was 11 µM (≈ 1.51 µg/mL).

As for `Nc1ccc(C(=O)CC2(O)c3ccccc3-n3c2nc2ccccc2c3=O)cc1` (stereo not shown) [Compound H136], the MIC in the test with M. tuberculosis (H37Rv) is 1.6 µM; in test [3], 11.4 µM (≈ 4.37 µg/mL); in [4] (setting [6]) it was 42.5 µM (≈ 16.3 µg/mL). For the same molecule, the IC50 in test [1] was determined as 359 µM; in test [2] it was 321 µM. The “MBC compared with MIC” value in the test with Mycobacterium is reported as “MBC values equivalent to their MIC values”. The Bacteriocidal/Bacteriostatic entry with Mycobacterium is reported as “bactericidal activity”.

Regarding `N#Cc1ccc(C(=O)CC2(O)c3ccccc3-n3c2nc2ccccc2c3=O)cc1` (stereo not shown) [Compound H27], the values for the MIC (in the test with M. tuberculosis (H37Rv); in test [3]; in [4] (setting [6])) were 1.56 µM, 6.58 µM (≈ 2.59 µg/mL) and 12.8 µM (≈ 5.05 µg/mL), respectively. The IC50 in test [1] was determined as 444 µM; in test [2], 902 µM. For the same molecule, the Bacteriocidal/Bacteriostatic result in the test on Mycobacterium is on record as “Bacteriostatic”.

With `Cc1nc(C)c(C(=O)N(c2cccc(C)c2C)C(C(=O)NC2CCCCC2)c2ccccc2)s1` (stereo not shown) [Compound H85], the MIC in the test with M. tuberculosis (H37Rv) was 12.5 µM; in test [3], 11.5 µM (≈ 5.47 µg/mL); in test [4] (setting [6]), 25.1 µM (≈ 12 µg/mL). Moreover, the concentration for half-maximal inhibition (IC50) is 790 µM in test [1] and 497 µM in [2]. Further, in the test on Mycobacterium, the Bacteriocidal/Bacteriostatic result is listed as “Bacteriostatic”.

On to `CO[C@H]1/C=C/O[C@@]2(C)Oc3c(C)c(O)c4c(O)c(c(/C=N/N5CCN(C)CC5)c(O)c4c3C2=O)NC(=O)/C(C)=C\C=C\[C@H](C)[C@H](O)[C@@H](C)[C@@H](O)[C@@H](C)[C@H](OC(C)=O)[C@@H]1C` [Rifampicin, reference compound], for which the mean z-score with M. smegmatis (MC^2 155) came out at 4.4. Further, the MIC in [4] (MC^2155, 32 h) was found to be 2.43 µM (≈ 2 µg/mL).

As to `Cc1ccc(C)c(Cn2nnc3c(O)nc(C4CCCN(C(=O)c5ccc(C(C)(C)C)cc5)C4)nc32)c1` (stereo not shown) [Compound H126], the MIC was 12.5 µM with M. tuberculosis (H37Rv), 23.8 µM (≈ 11.9 µg/mL) in [3] and 30.6 µM (≈ 15.3 µg/mL) in test [4] (setting [6]). Moreover, the results for the IC50 in [1] and in [2] were 357 µM and 369 µM, respectively. For the same molecule, in the test on Mycobacterium, the Bacteriocidal/Bacteriostatic result was “Bacteriostatic”.

On to `O=C(CSc1nnc2scc(-c3ccccc3)n12)Nc1ccc(N2CCCC2)cc1` [Compound H127], for which the figures for the MIC (with M. tuberculosis (H37Rv); in test [3]; in test [4] (setting [6])) were 12.5 µM, 14.2 µM (≈ 6.19 µg/mL) and 46.6 µM (≈ 20.3 µg/mL), respectively. Also, the IC50 in [1] stood at 348 µM; in test [2], 411 µM. For the same molecule, in the test on Mycobacterium, the Bacteriocidal/Bacteriostatic result is listed as “Bacteriostatic”.

For `Cc1ccc(-c2nc3ccccc3s2)cc1` [Compound H117], the results for the MIC (with M. tuberculosis (H37Rv); in [3]; in test [4] (setting [6])) were 12.5 µM, 14.9 µM (≈ 3.36 µg/mL) and 26.8 µM (≈ 6.04 µg/mL), respectively. Also, the IC50 in test [1] stood at 408 µM; in [2], 475 µM. Further, in the test on Mycobacterium, the Bacteriocidal/Bacteriostatic result is recorded as “Bacteriostatic”.

Consider `COc1cc2c(cc1NC(=O)N1CCCCC1c1cccnc1)oc1ccccc12` (stereo not shown) [Compound H15], for which the values for the MIC (with M. tuberculosis (H37Rv); in test [3]; in test [4] (setting [6])) were 12.5 µM, 12 µM (≈ 4.83 µg/mL) and 42 µM (≈ 16.9 µg/mL), respectively. In addition, the IC50 in [1] worked out at 510 µM; in test [2], 526 µM. Also, the Bacteriocidal/Bacteriostatic result with Mycobacterium is recorded as “Bacteriostatic”.

For `CCSc1nsc(NC(=O)Nc2ccc(C(F)(F)F)cc2)n1` [Compound H94], the results for the MIC (with M. tuberculosis (H37Rv); in [3]; in [4] (setting [6])) were 6.25 µM, 12.7 µM (≈ 4.42 µg/mL) and 25.4 µM (≈ 8.83 µg/mL), respectively. Also, the results for the IC50 in test [1] and in test [2] were 599 µM and 443 µM, respectively. Moreover, the Bacteriocidal/Bacteriostatic result in the test with Mycobacterium was “Bacteriostatic”.

For orientation: IC50 means the concentration that inhibits the measured activity by half. For orientation: MBC means the lowest tested concentration that kills the bacteria rather than only halting them.
